Results taken from US11766470B2, “Manufacture, formulation and dosing of apraglutide” (VectivBio AG, priority 2020, dated 2023).
Where two headings read alike, the source gives them in different places. Square brackets hold non-standard residues; d marks the D form. Peptide text beside a SMILES is read from it. ξ: configuration not given here. Ile(3ξ) = CCC(C)[C@H](N)C(=O)O; Thr(3ξ) = CC(O)[C@H](N)C(=O)O; Nle = CCCC[C@H](N)C(=O)O

Tests used:
[1] = test system: anti-apraglutide antibodies; assay: Anti-apraglutide antibodies ELISA in serum, Phase 2 SBS-IF trial (Example 5); type: in vivo, human
Source text: Blood samples for analysis of plasma concentration of apraglutide and fasting plasma L-citrulline, a marker of enterocyte mass, were collected at baseline, during first and second treatment injection, four days after first treatment injection and at the end of treatment.
A fully validated ELISA method was used for the detection of anti-apraglutide antibodies in serum, following a three-tiered assay approach. In the first tier, anti-apraglutide antibodies present in samples and controls bonded to apraglutide immobilized on a microtiter plate. The bound anti-apraglutide antibodies were then detected with protein A/G and protein L. A sample with a signal above the validated screening cut-point was considered potentially positive and was then tested in the second tier, the confirmatory assay. For this, samples were pre-treated with an excess of apraglutide prior to testing them in the assay described above. An inhibition of the signal equal to or greater than the validated confirmatory cut-point confirmed the presence of antibodies. Samples were then reported as anti-apraglutide antibody positive. Titers were then determined by serial dilution of all confirmed positive samples.

[2] = human, in vivo
Method: 23 healthy adult volunteers received 6 weekly subcutaneous doses of apraglutide (1, 5, or 10 mg) or placebo and were followed for a further 6 weeks after the last dose. Blood collections were controlled for diet, lifestyle, and diurnal effects. […] PK data underwent non-compartmental analysis and PD data were analyzed by ANCOVA.
As with citrulline, a statistical steady-state analysis per dose level was performed for apraglutide using Helmert's approach.

Compound: CCCC[C@H](NC(=O)[C@H](CCC(=O)O)NC(=O)[C@H](CC(=O)O)NC(=O)[C@H](CO)NC(=O)[C@H](Cc1ccccc1)NC(=O)[C@H](CO)NC(=O)CNC(=O)[C@H](CC(=O)O)NC(=O)CNC(=O)[C@@H](N)Cc1c[nH]cn1)C(=O)N[C@H](Cc1ccccc1)C(=O)N[C@H](C(=O)N[C@H](C(=O)N[C@@H](CC(C)C)C(=O)N[C@@H](CC(=O)O)C(=O)N[C@@H](CC(C)C)C(=O)N[C@@H](CC(C)C)C(=O)N[C@@H](C)C(=O)N[C@@H](C)C(=O)N[C@@H](CCCNC(=N)N)C(=O)N[C@@H](CC(=O)O)C(=O)N[C@@H](Cc1ccccc1)C(=O)N[C@H](C(=O)N[C@@H](CC(N)=O)C(=O)N[C@@H](Cc1c[nH]c2ccccc12)C(=O)N[C@@H](CC(C)C)C(=O)N[C@H](C(=O)N[C@@H](CCC(N)=O)C(=O)N[C@H](C(=O)N[C@@H](CCCCN)C(=O)N[C@H](C(=O)N[C@H](C(=O)N[C@@H](CC(=O)O)C(N)=O)C(C)O)C(C)CC)C(C)O)C(C)CC)C(C)CC)C(C)CC)C(C)O (stereo partly drawn) [apraglutide, L-histidyl-glycyl-L-aspartyl-glycyl-L-seryl-L-phenylalanyl-L-seryl-L-aspartyl-L-glutamyl-L-norleucyl-D-phenylalanyl-L-threonyl-Lisoleucyl-L-leucyl-L-aspartyl-L-leucyl-L-leucyl-L-alanyl-L-alanyl-L-arginyl-L-aspartyl-L-phenylalanyl-L-isoleucyl-L-asparaginyl-Ltryptophanyl-L-leucyl-L-isoleucyl-L-glutaminyl-L-threonyl-L-lysyl-L-isoleucyl-L-threonyl-Laspartic acid amide] (H-HGDGSFSDE[Nle][dF][Thr(3ξ)][Ile(3ξ)]LDLLAARDF[Ile(3ξ)]NWL[Ile(3ξ)]Q[Thr(3ξ)]K[Ile(3ξ)][Thr(3ξ)]D-NH2)
- Patients who developed anti-apraglutide antibodies ([1]; during the trial): Three
- Patients positive for anti-apraglutide antibodies ([1]; end of 5 mg treatment period): Two
- Patients positive for anti-apraglutide antibodies ([1]; end of 10 mg treatment period): one
- Effects of anti-apraglutide antibodies on PK profile, pharmacodynamic response, adverse events ([1]; in vivo): No effects of anti-apraglutide antibodies were detected
- Quantifiable concentration in the last pharmacokinetic sample (2 weeks after last dose) [2]: up to 4.46 ng/mL
- CL/F, arithmetic mean ± SD ([2]; 5 mg): 16.480 L/day
- CL/F, arithmetic mean ± SD ([2]; 10 mg): 20.747 L/day
